Results: patent publication US20230406803A1, “TROPOLONE DERIVATIVES AND TAUTOMERS THEREOF FOR IRON REGULATION IN ANIMALS” (Kinesid Therapeutics, Inc, priority 2020, published 2023)

Tests used:
[1] = tested on: DMT1-deficient Caco-2 cells; assay: shDMT1-Caco2 55Fe transport assay; assay type: cell-based; settings: 3 μM, 4 h; fold change over DMSO normalized to hinokitiol at 3 μM (FC hino=1)
Description: Assay 2: shDMT1-Caco2 ^55Fe Transport Assay to Assess Ligand Ability in Transporting Fe (III)
Cells: DMT1-deficient Caco-2 cells (alias: “shDMT1,” or “4A” cells) were from Grillo et al. Science, 2017, and were cryopreserved in liquid nitrogen prior to use.
Reagents and supplies: ^55FeCl3 was obtained from PerkinElmer (Boston, MA). Iron(III) chloride (FeCl3) hexahydrate was obtained from Sigma. Dulbecco's Modified Eagle Medium (DMEM), fetal bovine serum (FBS), L-glutamine, MEM nonessential amino acids, penicillin-streptomycin, G418, formic acid, methanol, high-purity water, ammonium formate, dimethyl sulfoxide (DMSO) were purchased from Fisher Scientific. Propranolol, atenolol and carbutamide were obtained from Sigma-Aldrich Chemical Company (St Louis, MO). Scintillation cocktail was obtained from Research Product International Co. (Mount Prospect, IL). Stericup filter system (PES membrane, 0.22 um pore size) was purchased from Fisher Scientific. Corning item #3378 24-well transwell insert plates.
Test articles: known compounds hinokitiol and deferiprone were purchased from Sigma. They are tested side by side with the small molecule ligands disclosed in this application. DMSO stocks (10 mM, which is 1,000× of the 10 μM dose level) of hinokitiol or test articles were prepared. A stock solution of 25 mM deferiprone in DMSO was prepared. The DMSO stock solutions were stored at −20° C. or below when not in use.
The growth medium was prepared according to the following table
Apical media (serum free DMEM, 10 mM MES, pH 6.5) was prepared. Apical master mix media was prepared fresh with the addition of 200 nM ^55Fe before each experiment. For the negative control propranolol and atenolol wells, 200 nM of non-radioactive iron was used.
The basolateral media was serum-free DMEM, 10 mM HEPES, 2% bovine serum albumin (BSA), pH 7.4.
For each experiment, cells were seeded into the 24-well transwell plates (0.5 mL of 50,000 cells/mL) with growth media. The basolateral companion plate was loaded with 1 mL of growth media. After 12-24 hr, both the apical and basolateral chamber were replaced with growth media. The apical media was changed 3× per week for 21-28 days, including a media change exactly 48 hr before the assay date.
On the assay day, the TEER values were measured and the average TEER value was obtained. Individual wells with TEER value >35% lower than the average of all wells were excluded. For the qualified wells, the apical layer (twice) and basolaterial (once) chambers were washed with PBS. The basolateral companion plate was then filled with 1 mL of basolateral media. Via addition down the side-wall of the apical well, 300 μL per well of the apical assay master mix, with the indicated dose level of test article, was added. Each dose was tested in triplicate. The plates were incubated (5% CO2 and 90% humidity at 37° C.) for the indicated timepoints. At each indicated timepoint, the basolateral supernatant was gently mixed via pipetting, and 200 μL of the basolateral supernatant was transferred to scintillation vials. To each scintillation counting vial, 5 mL of scintillation cocktail fluid was added. For each scintillation vial, the radioactivity (CPM) was determined with liquid scintillation counter LS6500. The counting time per vial was 5 min.
All raw CPM values are divided by the average value of blank DMSO solution to give a fold of change above the DMSO value. The mean and standard deviation of each compound at each concentration level and at each time point measured was calculated to give the fold change (fc) value. For rank order compounds, the fc value of a ligand at 4 h time point is further divided by the fold change (fc) value of hinokitiol (a positive control compound) at an equimolar concentration to arrive at the FC (normalized fold of change) value. Data reported in Tables 1 and 2 is 4 hr time point FC=fc-ligand @ 3 uM/fc-hino @ 3 μM, and FC hino=1.

[2] = Human liver microsomal stability assay; assay type: in vitro ADME; settings: human liver microsomes
Description: (§1) Further examples of useful assays include metabolic stability assays, such as but not limited to e.g., liver microsomal clearance assays which provide measurement such as, but not limited to e.g., liver microsomal clearance half-life (t1/2), liver microsomal intrinsic clearance (CLint), and the like. Such measurements are useful in assessing various characteristics of a subject compound, such as e.g., the availability of an intact compound to provide a pharmacological effect. A compound having a longer microsomal clearance half-life (t1/2), e.g., than a reference compound, will provide better exposure of the intact compound and greater availability to produce the relevant pharmacological effect. A compound having a less microsomal clearance, e.g., as measured by liver microsomal intrinsic clearance (CLint), will similarly result in greater exposure of the intact compound available for an increase in the relevant pharmacological effect, e.g., as compared to that of a reference compound with a higher liver microsomal intrinsic clearance (CLint). Other useful assays include in vitro hepatocyte metabolic stability assays.
(§2) Such assessments included human and mouse liver microsomal stability assays as well as 6-hour mouse PK studies.

[3] = Mouse liver microsomal stability assay; assay type: in vitro ADME; settings: mouse liver microsomes
Description: as §1, §2

Mouse 6-hour PK study = settings: in vivo, mouse 6-hour PK
Description: Useful such assays include, but are not limited to e.g., those measurements made in PK studies, such as rodent and non-human primate PK studies, including e.g., mouse (such as mouse 6-hour PK studies), rat PK studies, cynomolgus or rhesus PK studies, or the like. Useful measurements obtained in such PK studies include but are not limited to e.g., maximum concentration (Cmax) reflecting the “peak” of a drug observed after its administration that can reflect not only the rate but also the extent of absorption, area under the curve (AUC) representing the area under the plot of tissue (e.g., plasma) concentration against time after drug administration which is of particular use in estimating bioavailability of drugs and drug total clearance, half-life (t1/2) or the period of time required for the concentration or amount of drug to be reduced to exactly one-half of a given concentration or amount that indicates the persistence of the drug in its volume of distribution, and the like.
as §2

Question: Which “Caco2 shDMT1 transport FC @ 3 μM, 4 h” value [1] does the source give for `CC(C)c1cccc(=O)c(O)c1` [hinokitiol, reference compound] here?
Answer: 1

Question: What about the microsomal CLint ([2]; read-out: Human CLint) of the same compound?
Answer: 120 µL/min/mg

Question: And the half-life ([2]; read-out: Human t1/2)?
Answer: 11.6 min

Question: What about the microsomal CLint ([3]; read-out: Mouse CLint) of the same compound?
Answer: 46.7 µL/min/mg

Question: And the half-life ([3]; read-out: Mouse t1/2)?
Answer: 29.7 min

Question: And the AUC(0-t) (Mouse 6-hour PK study; read-out: AUClast 0-6 hr)?
Answer: 584 ng·h/mL

Question: What about the Cmax (Mouse 6-hour PK study; read-out: Cmax) of the same compound?
Answer: 956 ng/mL

Question: What about the half-life (Mouse 6-hour PK study; read-out: t1/2 (converted)) of the same compound?
Answer: 66.6 min
